From ChEMBL document CHEMBL1152576, “E-Combretastatin and E-resveratrol structural modifications: antimicrobial and cancer cell growth inhibitory beta-E-nitrostyrenes” (Bioorg Med Chem, 2009)
In brackets after ≈: the same amount, converted by molar mass. Activity calls are given as the source filed them. The calls are words filed in the database; no cut-off is given here.

Tests used:
P388 = experiment: Cytotoxicity against mouse P388 cells after 48 hrs by sulforhodamine B assay; type: functional; details: P388, 48 h, read-out: ED50 (the source's name)
BXPC-3 = experiment: Cytotoxicity against human BxPC3 cells after 48 hrs by sulforhodamine B assay; type: functional; details: BXPC-3, 48 h
MCF7 = experiment: Cytotoxicity against human MCF7 cells after 48 hrs by sulforhodamine B assay; type: functional; details: MCF7, 48 h
SF-295 = experiment: Cytotoxicity against human SF295 cells after 48 hrs by sulforhodamine B assay; type: functional; details: SF-295, 48 h
SF-268 = experiment: Cytotoxicity against human SF268 cells after 48 hrs by sulforhodamine B assay; type: functional
NCI-H460 = experiment: Cytotoxicity against human NCI-H460 cells after 48 hrs by sulforhodamine B assay; type: functional; details: NCI-H460, 48 h
KM-20L2 = experiment: Cytotoxicity against human KM20L2 cells after 48 hrs by sulforhodamine B assay; type: functional; details: KM-20L2, 48 h
DU-145 = experiment: Cytotoxicity against human DU145 cells after 48 hrs by sulforhodamine B assay; type: functional; details: DU-145, 48 h
SK-MEL-5 = experiment: Cytotoxicity against human SK-MEL-5 cells after 48 hrs by sulforhodamine B assay; type: functional
OVCAR-3 = experiment: Cytotoxicity against human OVCAR-3 cells after 48 hrs by sulforhodamine B assay; type: functional
A498 = experiment: Cytotoxicity against human A498 cells after 48 hrs by sulforhodamine B assay; type: functional
[1] = Inhibition of tubulin polymerization
Candida albicans [2] = experiment: Antimicrobial activity against Candida albicans ATCC 90028 assessed clear zone in inhibition per disk by CLSI disk diffusion susceptibility assay; type: functional
Cryptococcus neoformans [3] = experiment: Antimicrobial activity against Cryptococcus neoformans ATCC 90112 assessed clear zone in inhibition per disk by CLSI disk diffusion susceptibility assay; type: functional
Staphylococcus aureus [4] = experiment: Antimicrobial activity against Staphylococcus aureus ATCC 29213 assessed clear zone in inhibition per disk by CLSI disk diffusion susceptibility assay; type: functional
Streptococcus pneumoniae [5] = experiment: Antimicrobial activity against Streptococcus pneumoniae ATCC 6303 assessed clear zone in inhibition per disk by CLSI disk diffusion susceptibility assay; type: functional
Enterococcus faecalis [6] = experiment: Antimicrobial activity against Enterococcus faecalis ATCC 29212 assessed clear zone in inhibition per disk by CLSI disk diffusion susceptibility assay; type: functional
Micrococcus luteus [7] = experiment: Antimicrobial activity against Micrococcus luteus Presque Isle 456 assessed clear zone in inhibition per disk by CLSI disk diffusion susceptibility assay; type: functional
[8] = test system: Stenotrophomonas maltophilia; experiment: Antimicrobial activity against Stenotrophomonas maltophilia ATCC 13637 assessed clear zone in inhibition per disk by CLSI disk diffusion susceptibility assay; type: functional
Escherichia coli [9] = experiment: Antimicrobial activity against Escherichia coli ATCC 25922 assessed clear zone in inhibition per disk by CLSI disk diffusion susceptibility assay; type: functional
Enterobacter cloacae [10] = experiment: Antimicrobial activity against Enterobacter cloacae ATCC 13047 assessed clear zone in inhibition per disk by CLSI disk diffusion susceptibility assay; type: functional
Neisseria gonorrhoeae [11] = experiment: Antimicrobial activity against Neisseria gonorrhoeae ATCC 49226 assessed clear zone of inhibition measured per disk by CLSI disk diffusion susceptibility assay; type: functional
Candida albicans [12] = experiment: Antifungal activity against Candida albicans ATCC 90028 after 48 hrs by broth microdilution susceptibility assay; type: functional; details: ATCC 90028, 48 h
Cryptococcus neoformans [13] = experiment: Antifungal activity against Cryptococcus neoformans ATCC 90112 after 72 hrs by broth microdilution susceptibility assay; type: functional; details: ATCC 90112, 72 h
Staphylococcus aureus [14] = experiment: Antimicrobial activity against Staphylococcus aureus ATCC 29213 by broth microdilution susceptibility assay; type: functional
Streptococcus pneumoniae [15] = experiment: Antimicrobial activity against Streptococcus pneumoniae ATCC 6303 by broth microdilution susceptibility assay; type: functional
Enterococcus faecalis [16] = experiment: Antimicrobial activity against Enterococcus faecalis ATCC 29212 by broth microdilution susceptibility assay; type: functional
Micrococcus luteus [17] = experiment: Antimicrobial activity against Micrococcus luteus Presque Isle 456 by broth microdilution susceptibility assay; type: functional
[18] = test system: Stenotrophomonas maltophilia; experiment: Antimicrobial activity against Stenotrophomonas maltophilia ATCC 13637 by broth microdilution susceptibility assay; type: functional
Escherichia coli [19] = experiment: Antimicrobial activity against Escherichia coli ATCC 25922 by broth microdilution susceptibility assay; type: functional
Enterobacter cloacae [20] = experiment: Antimicrobial activity against Enterobacter cloacae ATCC 13047 by broth microdilution susceptibility assay; type: functional
Neisseria gonorrhoeae [21] = experiment: Antimicrobial activity against Neisseria gonorrhoeae ATCC 49226 by broth microdilution susceptibility assay; type: functional
Candida albicans [22] = experiment: Antifungal activity against Candida albicans ATCC 90028 after 24 hrs by broth microdilution susceptibility assay; type: functional; details: ATCC 90028, 24 h
Staphylococcus aureus [23] = experiment: Antimicrobial activity against Staphylococcus aureus ATCC 29213 after 24 hrs by broth microdilution susceptibility assay; type: functional; details: ATCC 29213, 24 h
Streptococcus pneumoniae [24] = experiment: Antimicrobial activity against Streptococcus pneumoniae ATCC 6303 after 24 hrs by broth microdilution susceptibility assay; type: functional; details: ATCC 6303, 24 h
Enterococcus faecalis [25] = experiment: Antimicrobial activity against Enterococcus faecalis ATCC 29212 after 24 hrs by broth microdilution susceptibility assay; type: functional; details: ATCC 29212, 24 h
[26] = test system: Stenotrophomonas maltophilia; experiment: Antimicrobial activity against Stenotrophomonas maltophilia ATCC 13637 after 24 hrs by broth microdilution susceptibility assay; type: functional; details: ATCC 13637, 24 h
Escherichia coli [27] = experiment: Antimicrobial activity against Escherichia coli ATCC 25922 after 24 hrs by broth microdilution susceptibility assay; type: functional; details: ATCC 25922, 24 h
Enterobacter cloacae [28] = experiment: Antimicrobial activity against Enterobacter cloacae ATCC 13047 after 24 hrs by broth microdilution susceptibility assay; type: functional; details: ATCC 13047, 24 h
Neisseria gonorrhoeae [29] = experiment: Antimicrobial activity against Neisseria gonorrhoeae ATCC 49226 after 24 hrs by broth microdilution susceptibility assay; type: functional; details: ATCC 49226, 24 h

COc1ccccc1/C=C/[N+](=O)[O-]
EC50 (P388): 0.51 µg/mL (≈ 2.85 µM)
GI50 (BXPC-3): 1.6 µg/mL (≈ 8.93 µM)
GI50 (MCF7): 0.48 µg/mL (≈ 2.68 µM)
GI50 (SF-295): 1.7 µg/mL (≈ 9.49 µM)
GI50 (SF-268): inactive
GI50 (NCI-H460): 1.7 µg/mL (≈ 9.49 µM)
GI50 (KM-20L2): 1.5 µg/mL (≈ 8.37 µM)
GI50 (DU-145): 1.5 µg/mL (≈ 8.37 µM)
GI50 (SK-MEL-5): inactive
GI50 (OVCAR-3): inactive
GI50 (A498): inactive
IC50 [1]: 7.4 µM
MIC (Candida albicans [2]): 1.56 µg
MIC (Cryptococcus neoformans [3]): 0.78 µg
MIC (Staphylococcus aureus [4]): 6.25 µg
MIC (Streptococcus pneumoniae [5]): 25 µg
MIC (Enterococcus faecalis [6]): 0.78 µg
MIC (Micrococcus luteus [7]): >100 µg
MIC [8]: 12.5 µg
MIC (Escherichia coli [9]): 50 µg
MIC (Enterobacter cloacae [10]): 25 µg
MIC (Neisseria gonorrhoeae [11]): 0.78 µg
MIC (Candida albicans [12]): 8 µg/mL (≈ 44.6 µM)
MIC (Cryptococcus neoformans [13]): > 64 µg/mL
MIC (Staphylococcus aureus [14]): 64 µg/mL (≈ 357 µM)
MIC (Streptococcus pneumoniae [15]): 64 µg/mL (≈ 357 µM)
MIC (Enterococcus faecalis [16]): 64 µg/mL (≈ 357 µM)
MIC (Micrococcus luteus [17]): > 64 µg/mL
MIC [18]: 32 µg/mL (≈ 179 µM)
MIC (Escherichia coli [19]): 64 µg/mL (≈ 357 µM)
MIC (Enterobacter cloacae [20]): 64 µg/mL (≈ 357 µM)
MIC (Neisseria gonorrhoeae [21]): 2 µg/mL (≈ 11.2 µM)
MFC (Candida albicans [22]): 16 µg/mL (≈ 89.3 µM)
MBC (Staphylococcus aureus [23]): > 64 µg/mL
MBC (Streptococcus pneumoniae [24]): > 64 µg/mL
MBC (Enterococcus faecalis [25]): > 64 µg/mL
MBC [26]: 64 µg/mL (≈ 357 µM)
MBC (Escherichia coli [27]): 64 µg/mL (≈ 357 µM)
MBC (Enterobacter cloacae [28]): > 64 µg/mL
MBC (Neisseria gonorrhoeae [29]): 2 µg/mL (≈ 11.2 µM)
